Source: patent publication US11492357B2, “Thieno[3,2-d]pyrimidine derivative compound having inhibitory activity for protein kinase” (Hanmi Pharm. Co., Ltd., priority 2017, dated 2022)
pIC50: −log10 of the molar value. Counter-ions that a name gives are not always drawn.

Experiments:
[1] = system: SK-MEL-30 melanoma cells (N-RAS Q61K mutant); assay: Inhibition of cell growth of N-RAS Q61K mutant SK-MEL-30 cells (SRB); format: cell-based; details: Homo sapiens, 72 hours incubation, SRB staining
Protocol: N-RAS^Q61K mutant SK-MEL-30 melanoma cell line (ACC-151) was obtained from DSMZ (Deutsche Sammlung von Mikroorganismen und Zellkulturen GmbH, Germany). SK-MEL30 cells express wildtype B-RAF and mutant N-RAS (Q61K). SK-MEL-30 cells were incubated in a RPMI medium supplemented with 10% FBS and 1% penicillin/streptomycin (Gibco BRL) under 37° C., 5% CO2 and 95% air. Cells were seeded in 96-well plates at a density of 5,000 cells/well, and cultured for 18 hours or more. Then cells were treated with 0.1-10 μM (1/10 serial dilution) of test compounds, and incubated for 72 hours.
To evaluate cell viabilities, SK-MEL-30 cell lines were fixed with 10% TCA (trichloroacetic acid), stained with SRB (sulforhodamine B), and the absorbance was measured at 540 nm. Then, GI50, i.e., the concentration of drug to cause 50% reduction in proliferation of cancer cells, was calculated therefrom. The growth rates of cancer cells were calculated by Equation 1 or 2. [(Ti−Tz)/(C−Tz)]×100 (for […]) Equation 1 [(Ti−Tz)/Tz]×100 (for Ti<Tz) Equation 2
In Equation 1 and 2, ‘Tz’ refers to the density of untreated cells, which is the absorbance in 0% cell growth groups. ‘C’ refers to the density of cells cultured by adding only medium, and ‘Ti’ refers to the density of cells treated with test compounds. […]

B-RAF V600E = B-RAF V600E (Homo sapiens (Human), UniProt P15056, V600E); assay: RAF kinase inhibitory activity, Kinase Profiling Service; format: biochemical
Sequence of B-RAF V600E (P15056 whole entry V600E): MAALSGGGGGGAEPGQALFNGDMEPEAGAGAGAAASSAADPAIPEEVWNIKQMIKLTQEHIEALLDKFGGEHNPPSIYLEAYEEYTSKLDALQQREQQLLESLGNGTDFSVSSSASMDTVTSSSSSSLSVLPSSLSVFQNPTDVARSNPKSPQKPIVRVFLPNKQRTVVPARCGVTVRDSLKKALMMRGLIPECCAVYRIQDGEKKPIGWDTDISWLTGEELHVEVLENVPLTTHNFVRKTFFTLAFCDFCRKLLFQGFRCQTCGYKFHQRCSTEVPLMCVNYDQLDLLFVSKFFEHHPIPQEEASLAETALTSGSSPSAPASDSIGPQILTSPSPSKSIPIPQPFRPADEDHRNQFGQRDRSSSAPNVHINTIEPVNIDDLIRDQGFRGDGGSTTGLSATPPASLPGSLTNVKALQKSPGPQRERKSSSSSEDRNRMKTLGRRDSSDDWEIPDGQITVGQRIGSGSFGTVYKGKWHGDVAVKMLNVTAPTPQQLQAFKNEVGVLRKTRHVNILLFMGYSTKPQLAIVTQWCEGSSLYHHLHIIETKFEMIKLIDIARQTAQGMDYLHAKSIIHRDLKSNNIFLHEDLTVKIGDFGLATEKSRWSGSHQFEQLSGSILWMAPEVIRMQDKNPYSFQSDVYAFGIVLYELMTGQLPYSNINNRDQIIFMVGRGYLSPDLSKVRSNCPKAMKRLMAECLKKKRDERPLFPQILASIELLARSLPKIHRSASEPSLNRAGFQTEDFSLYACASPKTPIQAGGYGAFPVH
Protocol: (§1) The levels of enzymatic inhibition of the compound were calculated as percent inhibition at various concentrations. Based on percent inhibition, dose-response curves were plotted using GraphPad Prism software.

B-RAF wild type = B-RAF wild type (Homo sapiens (Human), UniProt P15056); assay: as above; format: biochemical; details: read-out: B-RAF WT (IC50)
Sequence of B-RAF wild type (P15056 whole entry): as the sequence (P15056 whole entry V600E) above, with E600V counted along it
Protocol: as §1

RAF1 (C-RAF) Y340D/Y341D = RAF1 (C-RAF) Y340D/Y341D (Homo sapiens (Human), UniProt P04049, Y340D/Y341D); assay: as above; format: biochemical
Sequence of RAF1 (C-RAF) Y340D/Y341D (P04049 whole entry Y340D/Y341D): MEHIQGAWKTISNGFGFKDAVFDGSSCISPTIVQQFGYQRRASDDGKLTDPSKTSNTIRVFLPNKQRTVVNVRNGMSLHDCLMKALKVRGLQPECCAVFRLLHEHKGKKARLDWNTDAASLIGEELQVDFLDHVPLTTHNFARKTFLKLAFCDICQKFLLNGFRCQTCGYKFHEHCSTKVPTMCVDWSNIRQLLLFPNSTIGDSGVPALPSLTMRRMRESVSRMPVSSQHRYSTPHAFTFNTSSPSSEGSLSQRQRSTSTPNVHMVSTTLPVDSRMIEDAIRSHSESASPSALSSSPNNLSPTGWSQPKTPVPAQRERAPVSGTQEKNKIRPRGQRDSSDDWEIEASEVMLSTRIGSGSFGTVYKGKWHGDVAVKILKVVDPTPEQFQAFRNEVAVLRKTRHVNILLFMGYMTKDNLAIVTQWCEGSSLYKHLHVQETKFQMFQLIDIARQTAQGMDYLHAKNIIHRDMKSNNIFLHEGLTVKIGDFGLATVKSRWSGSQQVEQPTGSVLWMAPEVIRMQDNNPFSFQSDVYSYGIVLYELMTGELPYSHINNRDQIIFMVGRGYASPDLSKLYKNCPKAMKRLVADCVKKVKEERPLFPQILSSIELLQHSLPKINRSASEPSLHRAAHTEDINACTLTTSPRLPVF
Protocol: as §1

Structure (SMILES)	GI50 [1] [nM]	pIC50 (B-RAF V600E)	pIC50 (B-RAF wild type)	pIC50 (RAF1 (C-RAF) Y340D/Y341D)
Cc1ccc2c(Nc3ccc(O)c(Cl)c3F)nccc2c1NC(=O)c1csc2c(N)ncnc12 [Compound•2HCl, 4-amino-N-(1-((3-chloro-2-fluoro-4-hydroxyphenyl)amino)-6-methylisoquinolin-5-yl)thieno[3,2-d]pyrimidine-7-carboxamide dihydrochloride]	231	7.52	6.41	7.68
CCCS(=O)(=O)Nc1ccc(F)c(C(=O)c2c[nH]c3ncc(-c4ccc(Cl)cc4)cc23)c1F [Control, vemurafenib, reference compound]	> 10000			
